Laboratory results as given in patent publication US9273095B2, “Antibiotic peptide and preparation method therefor and application therefor” (priority 2011, dated 2016).
Values after ≈ are worked out from the molar mass of the structure shown. Like-named read-outs stand apart in the source and are kept apart here. Non-standard residues stand in square brackets, D forms with d. Residues, ends and D or L forms follow the SMILES beside them.

Tests used:
Enterococcus faecalis = assay: organism not typed; type: cell-based
Method: (§1) The experimental strains are 37 standard strains preserved in lab and clinical isolated bacteria, including drug-resistant bacteria and quality-control bacteria selecting Staphylococcus aureus ATCC29213, Enterococcus faecalis ATCC29212, Escherichia coli ATCC25922, Pseudomonas aeruginosa ATCC27853 and klebsiella pneumoniae ATCC700603.
(§2) (1) Sensitivity test is conducted with two-fold agar dilution method and Denlay multipoint inoculator. Test bacteria are cultured with nutrient broth and brain heart infusion.
(§3) (2) The drug is double diluted into different concentration with MH broth after dissolved and then placed in the plate respectively.
(§4) (4) After solidification of the culture medium in the plate, test bacteria (10^4CFU/point) are inoculated by multipoint inoculator and cultured for 18 hours at constant 35° C. Then observe the results.

[1] = tested on: Acinetobacter calcoaceticus; assay: microbe, parasite or virus in culture; type: cell-based
Method: as §1, §2, §3
(§5) (3) After dissolved, MH agar culture medium are injected into the plate with drug quantitatively and mixed to make the final concentration of drug are 0.03, 0.06, 0.125, . . . , 128 μg/ml respectively.
as §4

Salmonella typhimurium = assay: microbe, parasite or virus in culture; type: cell-based
Method: as §1, §2, §3, §5, §4

Proteus vulgaris = assay: microbe, parasite or virus in culture; type: cell-based
Method: as §1, §2, §3, §5, §4

Enterobacter aerogenes = assay: microbe, parasite or virus in culture; type: cell-based
Method: as §1, §2, §3, §5, §4

Serratia marcescens = assay: microbe, parasite or virus in culture; type: cell-based
Method: as §1, §2, §3, §5, §4

Enterobacter cloacae = assay: microbe, parasite or virus in culture; type: cell-based
Method: as §1, §2, §3, §5, §4

Feilaoti citrobacter = assay: microbe, parasite or virus in culture; type: cell-based
Method: as §1, §2, §3, §5, §4

Enterococcus faecium = assay: microbe, parasite or virus in culture; type: cell-based
Method: as §1, §2, §3, §4

[2] = Circular dichroism (CD) spectroscopy, helical structure; type: physicochemical; details: for 50% TFE % helix / Benign buffer % helix: relative to ellipticity (100%) of reference peptide in 50% TFE; for Benign buffer [θ]222 / 50% TFE [θ]222: mean residue molar ellipticity at 222 nm, 25° C.; for Benign buffer [θ]222: 100 mM KCl, 50 mM PO4, pH 7.0; for 50% TFE [θ]222: buffer containing 50% TFE
Method: The mean residue molar ellipticities of peptides are determined by circular dichroism (CD) spectroscopy, using a Jasco J-720 spectropolarimeter (Jasco, Easton, Md.), at 25° C. under benign conditions (50 mM KH2PO4/K2HPO4/100 mM KCl, pH7), as well as in the presence of an α-helix inducing solvent, 2,2,2-trifluoroethanol (TFE) (50 mM KH2PO4/K2HPO4/100 mM KCL, pH 7 buffer/50% TFE). A 10-fold dilution of a 500 μM stock solution of the peptide is loaded into a 0.02 cm fused silica cell and its mean residue molar ellipticity scanned from 190 to 250 nm. The values of mean residue molar ellipticities of the peptide at a wavelength of 222 nm are used to estimate the relative amount of α-helicity of the peptides.
To determine the secondary structure of peptides in different environments, circular dichroism (CD) spectra of the peptide analogs are measured under physiologically related pH and ionic strength (100 mM KCl, 50 mM aq. PO4, pH 7 referred to as benign conditions) and also in 50% TFE to mimic the hydrophobic environment of the membrane. CD spectra of the peptide analogs are measured under benign conditions (100 mM KCl, 50 mM KH2PO4/K2HPO4, pH 7, referred to as KP buffer) and also in 50% trifluoroethanol (TFE) to mimic the hydrophobic environment of the membrane. […] However, in the presence of 50% TFE, all three L-peptides are fully folded α-helical structures with similar molar ellipticities and helicity.
FIG. 2 illustrates graphical results of Circular dichroism (CD) spectra of peptides at pH 7.4 and 25° C., in 50 mM aq. PO4 containing 100 mM KCl, wherein KP buffer (50 mM KH2PO4, K2HPO4, 100 mM KCl, pH 7.4) mimics hydrophilic environment and KP buffer-TFE (1:1 [vol/vol]) mimics hydrophobic environment of cell membrane. The figure above represents the CD spectra of peptides in benign buffer without TFE, whilst the figure below represents CD spectra obtained in the presence of 50% TFE.

[3] = 06-71 (VRE) Vancomycin-resistant Enterococci, read-out: MIC
[4] = Enterococcus faecalis ATCC29212, read-out: MIC
[5] = HH22* (AMEs) Aminoglycoside-modifying enzyme, read-out: MIC
[6] = strain 06-7 (listed under Enterococcus faecalis), read-out: MIC
[7] = Acinetobacter calcoaceticus25001
[8] = 06-12 (VREF) Vancomycin-resistant enterococci

Compound | MIC (Enterococcus faecalis; [3]) [µM] | MIC (Enterococcus faecalis; [4]) [µM] | MIC (Enterococcus faecalis; [5]) [µM] | MIC (Enterococcus faecalis; [6]) [µM] | MIC (Proteus vulgaris; Proteus vulgaris 56) [µM] | MIC (Serratia marcescens; Serratia marcescens 41002) [µM] | MIC (Enterobacter cloacae; Enterobacter cloacae 45301) [µM] | MIC (Feilaoti citrobacter; Feilaoti citrobacter 48001) [µM] | MIC (Enterococcus faecium; [8]) [µM] | MIC (Enterococcus faecium; Enterococcus faecium 06-1) [µM] | 50% TFE % helix [2] [%] | Benign buffer % helix [2] [%] | Benign buffer [θ]222 [2] [deg · cm^2 · dmol^−1] | MIC [1] | MIC (Salmonella typhimurium; murium) [µM] | MIC (Proteus vulgaris) [µM] | MIC (Enterobacter aerogenes) [µM] | MIC (Serratia marcescens) [µM] | MIC (Enterobacter cloacae) [µM] | MIC (Feilaoti citrobacter) [µM] | other results
CC[C@@H](C)[C@@H](NC(=O)[C@@H](CCCCN)NC(=O)[C@@H](CO)NC(=O)[C@@H](Cc1ccccc1)NC(=O)[C@@H](CC(C)C)NC(=O)[C@@H](CCCCN)NC(=O)[C@@H](CCC(=O)O)NC(=O)[C@@H](CC(C)C)NC(=O)[C@@H](CCCNC(=N)N)NC(=O)[C@@H](CCCCN)NC(=O)[C@@H](Cc1ccccc1)NC(C)=O)C(=O)N[C@H](Cc1c[nH]c2ccccc12)C(=O)N[C@H](CC(N)=O)C(=O)N[C@H](Cc1c[nH]c2ccccc12)C(=O)N[C@H](CCCCN)C(N)=O [PL-17] (Ac-[dF][dK][dR][dL][dE][dK][dL][dF][dS][dK][dI][dW][dN][dW][dK]-NH2) | 1.7 (≈ 3.51 µg/mL) | 5.3 (≈ 10.9 µg/mL) | 10.7 (≈ 22.1 µg/mL) | 5.3 (≈ 10.9 µg/mL) | 5.3 (≈ 10.9 µg/mL) | 1.3 (≈ 2.68 µg/mL) | 1.3 (≈ 2.68 µg/mL) | 2.7 (≈ 5.57 µg/mL) | 1.7 (≈ 3.51 µg/mL) | 10.7 (≈ 22.1 µg/mL) |  |  |  |  |  |  |  |  |  |  | MIC [1, 7]: 1.3 µM (≈ 2.68 µg/mL); MIC (Salmonella typhimurium; Salmonella typhimurium): 1.3 µM (≈ 2.68 µg/mL); MIC (Enterobacter aerogenes; Enterobacter aerogenes 45102): 1.3 µM (≈ 2.68 µg/mL)
Ac-FKRLEKLFSKIWNWK-NH2 [PL-12] | 0.3 | 1.3 | 0.3 | 5.3 | 0.3 | 0.03 | 0.3 | 5.3 | 1.3 | 5.3 | 93.8 | 11.9 | −3350 |  |  |  |  |  |  |  | MIC [1, 7]: 0.03 µM; MIC (Salmonella typhimurium; Salmonella typhimurium): 5.3 µM; MIC (Enterobacter aerogenes; Enterobacter aerogenes 45102): 0.03 µM; secondary structure by CD (in words) ([2]; KP buffer (benign)): only partially helical; 50% TFE [θ]222 [2]: −26450 deg · cm^2 · dmol^−1
Ac-FKKLKKLFSKLWNWK-NH2 [PL-13] | 1.7 |  | 1.7 | 1.3 |  |  |  |  | 5.3 | 5.3 | 80.7 | 8.3 | −2350 | .3 µM | 1.3 | 0.3 | 2.7 | 0.3 | 1.3 | 1.3 | MIC (Enterococcus faecalis; read-out: MIC): 5.3 µM; 50% TFE [θ]222 [2]: −22750 deg · cm^2 · dmol^−1
C[C@H]1COc2c(N3CCN(C)CC3)c(F)cc3c(=O)c(C(=O)O)cn1c23 [Levofloxacin, levofloxacin, reference compound] | 2.4 (≈ 0.867 µg/mL) |  |  |  | < 0.007 | 0.1 (≈ 0.0361 µg/mL) | 0.1 (≈ 0.0361 µg/mL) | 0.1 (≈ 0.0361 µg/mL) |  | 2.40 (≈ 0.867 µg/mL) |  |  |  |  |  |  |  |  |  |  | MIC (Enterococcus faecalis; Enterococcus faecalis, ATCC29212, Enterococcus faecalis ATCC29212): 1.2 µM (≈ 0.434 µg/mL); MIC (Enterococcus faecalis; Enterococcus faecalis, HH22* (AMEs) Aminoglycoside-modifying enzyme): 1.2 µM (≈ 0.434 µg/mL); MIC (Enterococcus faecalis; Enterococcus faecalis, strain 06-7 (listed under Enterococcus faecalis)): 19.2 µM (≈ 6.95 µg/mL); MIC ([1]; Acinetobacter calcoaceticus, Acinetobacter calcoaceticus25001): 0.1 µM (≈ 0.0361 µg/mL); MIC (Salmonella typhimurium; Salmonella enterica, Salmonella typhimurium): < 0.02 µM; MIC (Enterobacter aerogenes; Klebsiella aerogenes, Enterobacter aerogenes 45102): < 0.02 µM; MIC (Enterococcus faecium; Enterococcus faecium, 06-12 (VREF) Vancomycin-resistant enterococci): 2.4 µM (≈ 0.867 µg/mL)
CC(=O)N[C@H](Cc1ccccc1)C(=O)N[C@H](CCCCN)C(=O)N[C@H](CCCCN)C(=O)N[C@H](CC(C)C)C(=O)N[C@H](CCCCN)C(=O)N[C@H](CCCCN)C(=O)N[C@H](CC(C)C)C(=O)N[C@H](Cc1ccccc1)C(=O)N[C@H](CO)C(=O)N[C@H](CCCCN)C(=O)N[C@H](CC(C)C)C(=O)N[C@H](Cc1c[nH]c2ccccc12)C(=O)N[C@H](CC(N)=O)C(=O)N[C@H](Cc1c[nH]c2ccccc12)C(=O)N[C@H](CCCCN)C(N)=O [PL-18] (Ac-[dF][dK][dK][dL][dK][dK][dL][dF][dS][dK][dL][dW][dN][dW][dK]-NH2) | 1.3 (≈ 2.65 µg/mL) |  | 1.7 (≈ 3.46 µg/mL) |  |  |  |  |  | 5.3 (≈ 10.8 µg/mL) | 5.3 (≈ 10.8 µg/mL) | 80.5 | 8.2 | 2300 | 1.7 µM (≈ 3.46 µg/mL) | 0.3 (≈ 0.611 µg/mL) | 5.3 (≈ 10.8 µg/mL) | 0.04 (≈ 0.0814 µg/mL) | 0.04 (≈ 0.0814 µg/mL) | 0.04 (≈ 0.0814 µg/mL) | 0.3 (≈ 0.611 µg/mL) | 
CC(=O)N[C@H](Cc1ccccc1)C(=O)N[C@H](CCCCN)C(=O)N[C@H](CCCCN)C(=O)N[C@H](Cc1ccccc1)C(=O)N[C@H](CCCCN)C(=O)N[C@H](CCCCN)C(=O)N[C@H](CC(C)C)C(=O)N[C@H](CC(C)C)C(=O)N[C@H](CO)C(=O)N[C@H](CCCCN)C(=O)N[C@H](CC(C)C)C(=O)N[C@H](Cc1c[nH]c2ccccc12)C(=O)N[C@H](CC(N)=O)C(=O)N[C@H](Cc1c[nH]c2ccccc12)C(=O)N[C@H](CCCCN)C(N)=O [PL-43] (Ac-[dF][dK][dK][dF][dK][dK][dL][dL][dS][dK][dL][dW][dN][dW][dK]-NH2; N-terminus and C-terminus assumed) |  |  |  |  |  |  |  |  |  |  | 96.3 | 14.0 |  | 0.3 µM (≈ 0.611 µg/mL) | 0.3 (≈ 0.611 µg/mL) | 0.3 (≈ 0.611 µg/mL) | 0.003 (≈ 0.00611 µg/mL) | 0.3 (≈ 0.611 µg/mL) | 0.03 (≈ 0.0611 µg/mL) | 0.3 (≈ 0.611 µg/mL) | 
